The source of these data is patent US20240327425A1, “KRAS G12D INHIBITOR AND USE THEREOF” (SHANGHAI DE NOVO PHARMATECH CO., LTD., priority 2021, published 2024).

For assay [1], the system named is ASPC-1 human pancreatic cancer cells. Kind of assay: Cell proliferation assay (Cell Titer-Glo), ASPC-1. The format is cell-based. On the procedure: (§1) On day 1, AGS human gastric cancer cells, ASPC-1 human pancreatic cancer cells, or GP2D human colon cancer cells (Nanjing Cobioer Biosciences Co. Ltd.) in the logarithmic growth phase were taken, digested with an appropriate amount of trypsin, formulated into a single cell suspension using RPMI 1640 (Gibco) medium containing 10% fetal bovine serum and 1% penicillin-streptomycin, counted to adjust the cell density, inoculated in a 96-well plate at 95 μL/well so that there were 3000 cells per well, and then the cell culture plate was incubated in a 37° C., 5% CO2 incubator for overnight. On day 2, a 10 mM concentrated stock solution of KRAS G12D inhibitor was 3-fold serially diluted with dimethyl sulfoxide solution, and then diluted with AGS complete culture medium to make a working solution, which was added to a cell culture plate at 5 μL/well so that the compound had the highest concentration of 10 μM and the lowest concentration of 0.0015 μM, and the control group was 0.5% dimethyl sulfoxide. The cell culture plate was briefly centrifuged and then incubated in a CO2 incubator for 72 hours. On day 5, the cell culture plate was taken out, added with Cell Titer-Glo (Promega) detection reagent in each well, incubated in the dark for 10 minutes, and then luminescence was detected using a microplate reader (Tecan, Infinite M1000 Pro). Data were analyzed using Graphpad software, and curve fitting was performed with four-parameter equation and the IC50 value of the inhibitor was calculated.
(ATP-based viability assays read luminescence as a measure of living cells.)

Assay [2] deals with phosphorylation level of ERK1/2 in ASPC-1 human pancreatic cancer cells. Kind of assay: pERK cell level assay (PHOSPHO-ERK1/2 HTRF kit). The format is cell-based. Conditions: Aspc-1 cells, 4 hours incubation. On the procedure: In this experiment, the phosphorylation level of ERK1/2 in AGS human gastric cancer cells or ASPC-1 human pancreatic cancer cells was detected using PHOSPHO-ERK1/2 (THR202/TYR 204) (Cisibo, 64ERKPEH) kit, and the inhibitory effect of the compounds on KRAS G12D was investigated based on the phosphorylation level of ERK1/2.
On day 1, the density of AGS cell (ATCC) suspension was adjusted to 2.1×10^5 cells/mL, then the suspension was spread in a 96-well plate at 95 μL/well so that there were 2×10^4 cells per well, and the cell culture plate was incubated in a 37° C., 5% CO2 incubator for overnight. On day 2, the compound was serially diluted with 100% dimethyl sulfoxide, and then further diluted with a complete culture medium (RPMI-1640+10% FBS+1% PS) to make a working solution of the compound, which was added to a 96-well cell culture plate at 5 μL/well, and incubated in a 37° C., 5% CO2 incubator for 4 hours. After the incubation was completed, the culture medium was discarded, then 1× lysis buffer was added thereto at 50 μL/well, and the plate was shaken at room temperature for 30 minutes. 16 μL of lysis buffer was added to a white 384-well shallow well plate, then 4 μL of pre-formulated antibody mixture was added thereto, and the plate was sealed with microplate sealer and incubated at room temperature for overnight. On day 3, detection was performed on a TECAN M1000 Pro microplate reader using the HTRF setting, and the IC50 value of the compound was calculated.
In general terms: Time-resolved FRET reads energy transfer from a long-lived donor to a nearby acceptor.

In assay [3] the test system is GP2D human colon cancer cells subcutaneous xenograft tumor. Kind of assay: In vivo pharmacodynamic experiment of subcutaneous xenograft tumor model in mice of GP2D human colon cancer cells. Conditions: BALB/c nude mice; for Tumor volume (11 days, mm^3): 11 days (at grouping). On the procedure: Cell culture: GP2D human colon cancer cells were maintained in monolayer culture in DMEM culture medium containing 10% fetal bovine serum in a constant temperature incubator containing 5% CO2 at 37° C. Tumor cells were passaged twice a week. Cells in the exponential growth phase were harvested and counted for inoculation.
Experimental animals: BALB/c nude mice, 6 to 8 weeks, 18 to 22 g, purchased from Jiangsu GemPharmatech Co. Ltd.
Experimental method: GP2D cell line ([…]) was inoculated subcutaneously on the right back of experimental mice. The inoculation volume of each mouse was 0.1 mL. The growth of the tumor was observed regularly. When the tumor grew to about 150 mm^3, the mice were randomly grouped according to the tumor size and body weight, and the drug was administrated according to the administration plan shown in Table 1. The body weight and tumor size were measured twice a week throughout the experiment.
tumor volume (mm^3)=0.5×(tumor long diameter×tumor short diameter^2). Tumor size calculation formula: […]

Assay [4] addresses Human KRAS G12D His-tagged protein (Homo sapiens (Human), UniProt P01116, G12D). Nature of the assay: KRAS G12D binding assay (TR-FRET). Conditions: GDP 20 nM, GTP-Red. On the procedure:
The binding ability of the compound to KRAS G12D protein was detected by TR-FRET method, and the inhibitory activity of the compound on KRAS G12D protein was evaluated. Human KRAS G12D His-tagged (Cisbio, 63ADK000CB27PEG) protein was 100-fold diluted with PPI Eu detection buffer (Cisbio, 61DB9RBF), then 5 μL of which was added to a 384-well plate and centrifuged at 2000 rpm for 40 seconds. A 10 mM concentrated stock solution of the test compound was prepared with dimethyl sulfoxide, 3-fold serially diluted, then diluted to make a working solution (0.5% DMSO) with PPI Eu detection buffer, added to a 384-well plate at 5 μL/well, with the control group added with 0.5% dimethyl sulfoxide and the highest concentration of the test compound at 10 μM, and centrifuged at 2000 rpm for 40 seconds. An 80 nM GDP standard working solution (Cisbio, 63ADK000CB27PEG) was prepared with PPI Eu detection buffer and added to a 384-well plate at 5 μL/well, with the final concentration of GDP standard working solution at 20 nM. The plate was centrifuged at 2000 rpm for 40 seconds and reacted at room temperature for 30 minutes. 1×6His Eu cryptate antibody and GTP-Red reagent (Cisbio, 63ADK000CB27PEG) were prepared with PPI Eu detection buffer, mixed in a volume ratio of 1:1, 5 μL of which was then added to a 384-well plate, centrifuged at 2000 rpm for 40 seconds, and incubated at room temperature for 30 minutes. The fluorescence intensity at 620 nm and 665 nm was detected by a microplate reader, and the inhibitory activity of the compound on KRAS G12D protein was obtained by fitting a four-parameter equation.

For assay [5], the system named is GP2D human colon cancer cells. Nature of the assay: Cell proliferation assay (Cell Titer-Glo), GP2D. The format is cell-based. Conditions: 72 hours. On the procedure:
as §1

Chain of Human KRAS G12D His-tagged protein (P01116-2 other isoform, or with tags, fused parts or gaps G12D): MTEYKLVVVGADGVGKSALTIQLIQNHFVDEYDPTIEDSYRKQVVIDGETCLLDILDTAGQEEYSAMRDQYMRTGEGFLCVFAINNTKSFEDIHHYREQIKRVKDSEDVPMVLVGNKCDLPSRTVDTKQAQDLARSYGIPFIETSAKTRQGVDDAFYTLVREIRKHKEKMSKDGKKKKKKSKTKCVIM

As to `N#Cc1c(N)sc2cccc(-c3c(Cl)c4c5c(nc(OC[C@@]67CCCN6C[C@H](F)C7)nc5c3F)N3C[C@H]5CC[C@H](N5)[C@H]3CO4)c12` (single isomer, unassigned) [Compound I-7-2], the IC50 was 1.7 nM in assay [1] (Homo sapiens, ASPC1, Aspc-1, 72 hours); 0.544 nM in assay [2] (Homo sapiens, ASPC1, pERK1/2 (THR202/TYR204)); 2.44 nM in assay [4]; 0.095 nM in assay [5] (Homo sapiens). In addition, the entries for the “Tumor volume (11 days, mm^3)” value in assay [3] (3 mg/kg i.p. twice a day) and in assay [3] (10 mg/kg i.p. twice a day) were 140.32 ± 19.74 mm^3 and 139.69 ± 17.49 mm^3, respectively. Also, the “Tumor volume (21 days, mm^3)” value amounted to 80.27 ± 11.38 mm^3 in assay [3] (3 mg/kg i.p. twice a day) and 70.19 ± 11.89 mm^3 in assay [3] (10 mg/kg i.p. twice a day). The “T/C (%)” value is 18.6% in assay [3] (3 mg/kg i.p. twice a day) and 15.5% in assay [3] (10 mg/kg i.p. twice a day). Besides, the “Tumor regression rate (%)” value is given as −39.9% in assay [3] (3 mg/kg i.p. twice a day) and −49.8% in assay [3] (10 mg/kg i.p. twice a day).

`CC(Oc1nc2c3c(c(Cl)c(-c4cccc5sc(N)c(C#N)c45)c(F)c3n1)OC[C@@H]1[C@@H]3CC[C@H](CN21)N3)[C@@]12CCCN1C[C@H](F)C2` (stereo partly drawn) [Compound I-17, 2-amino-4-((5aS,6S,9R)-3-chloro-1-fluoro-13-(1-((2R,7aS)-2-fluorohexahydro-1H-pyrrolizin-7a-yl)ethoxy)-5a,6,7,8,9,10-hexahydro-5H-6,9-epiminoazepino[2′,1′:3,4][1,4]oxazepino[5,6,7-de]quinazolin-2-yl)benzo[b]thiophene-3-carbonitrile ditrifluoroacetate]: the IC50 came to 31.9 nM in assay [1] (Aspc-1, 72 hours); 5.58 nM in assay [2] (pERK1/2 (THR202/TYR204)); 7.77 nM in assay [4]; 0.497 nM in assay [5].

Broadly, the IC50 is the concentration at which inhibition is half-maximal. Read a low IC50 as greater potency.
